# Publication PMC9201908, “Expansion of the Strigolactone Profluorescent Probes Repertory: The Right Probe for the Right Application” (Frontiers in Plant Science, 2022)
# “Also recorded” adds a separate entry of the source. Like-named read-outs stand apart in the source and are kept apart here.
# Experiments:
# OsD14 = target: T1, OsD14 (Oryza sativa subsp. japonica, UniProt Q10QA5); assay: Enzymatic assay with profluorescent probes, OsD14; assay type: biochemical, Ozyza sativa; settings: protein 0.33 μM, probe 10 μM
# T1 construct: GST (N); made in house
# T1 sequence (Q10QA5 with tags, fused parts or gaps): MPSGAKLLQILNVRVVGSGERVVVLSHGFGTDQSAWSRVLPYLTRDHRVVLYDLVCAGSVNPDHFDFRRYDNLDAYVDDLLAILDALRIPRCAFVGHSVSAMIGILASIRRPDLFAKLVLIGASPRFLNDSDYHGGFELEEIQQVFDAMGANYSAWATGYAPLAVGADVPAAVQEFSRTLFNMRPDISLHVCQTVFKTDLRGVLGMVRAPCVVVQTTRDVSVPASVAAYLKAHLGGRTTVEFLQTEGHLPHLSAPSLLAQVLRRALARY
# Procedure: (§1) The enzyme activity was determined by measuring the release of the fluorescent intensities of each fluorophores resulting from the cleavage of profluorescent probes by RMS3, AtD14, OsD14, and DAD2 proteins in a SPARK M10 in a 96-well format (de Saint Germain et al., [2021a]). In the assay, using an Integra Viaflo 96 robot, 50 μL of a solution of protein at 0.33 μM in same buffer was added simultaneously in all 96 wells to 50 μL of profluorescent substrate solution (at varying concentrations, prepared from a 10 mM stock solution in 100% of DMSO) in PBS (100 mM of phosphate, pH 6.8, 150 mM of NaCl). After a lag time of 15 s, the formation of fluorophores was recorded over 3 h at 15 s intervals at 25°C. […] All experiments were repeated with three technical replicates. The fluorescence of each fluorophore was also determined for each measurement at the same time frame but in the absence of enzyme in order to determine the standard curves. For rapid enzymatic assays (Figure 8A, small panel), the solution of protein was added by the injector of the plate reader and then, the well was immediately read over 5 min with 1 s intervals. Same parameters were used to determine the fluorophore concentration.
# RMS3 protein = target: T2, RMS3 protein (Pisum sativum, UniProt A0A109QYD3); assay: Enzymatic assay with profluorescent probes, RMS3; assay type: biochemical; settings: probe 10 μM; for Cleavage kinetics by RMS3: RMS3 400 nM, 25°C, result in words; for Cleavage of probe by RMS3: protein 0.33 μM
# T2 construct: GST; made in house
# T2 sequence (A0A109QYD3 1-267): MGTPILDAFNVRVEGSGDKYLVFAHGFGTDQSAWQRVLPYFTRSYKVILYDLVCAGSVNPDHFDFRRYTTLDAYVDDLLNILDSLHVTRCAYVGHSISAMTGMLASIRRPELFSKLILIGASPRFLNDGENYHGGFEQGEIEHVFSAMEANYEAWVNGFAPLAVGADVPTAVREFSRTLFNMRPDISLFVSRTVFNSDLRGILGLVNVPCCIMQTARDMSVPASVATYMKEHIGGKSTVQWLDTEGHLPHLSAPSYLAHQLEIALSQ
# DAD2 = target: T3, DAD2 (Petunia hybrida, UniProt J9U5U9); assay: Enzymatic assay with profluorescent probes, DAD2; assay type: biochemical; settings: protein 0.33 μM, probe 10 μM
# T3 construct: GST (N); made in house
# T3 sequence (J9U5U9 1-267): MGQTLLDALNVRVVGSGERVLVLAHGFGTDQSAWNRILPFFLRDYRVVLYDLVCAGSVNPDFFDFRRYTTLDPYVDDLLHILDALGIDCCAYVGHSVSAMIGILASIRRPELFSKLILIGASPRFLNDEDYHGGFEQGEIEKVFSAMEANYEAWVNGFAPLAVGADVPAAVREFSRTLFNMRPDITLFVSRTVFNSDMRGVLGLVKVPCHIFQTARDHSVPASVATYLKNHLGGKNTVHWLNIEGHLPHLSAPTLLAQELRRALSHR
# Procedure: as §1
# Ppccd8 mutant plants [1] = assay: Physcomitrium patens bioassay, number of filaments in the dark; assay type: in vivo; settings: 1 μM
# Procedure: Assays on Physcomitrium patens were performed on plants grown in 24-well plates, starting from very small pieces of moss tissues as described by Guillory and Bonhomme ([2021]). As for pea rms1, the Ppccd8 SL synthesis mutant was used for assays, since the effect of the compounds was better seen in this mutant vs. wild type (WT; Lopez-Obando et al., [2021]). For each treatment, 24 plants were grown in PpNO3 medium [minimal medium described by Ashton et al., [1979]], dispatched in three different plates. Plants were grown for 2 weeks under control conditions, then treated with fluorophores or probes (all compounds used at 1 μM), before being placed vertically in the dark for 10 days. A single picture of each well was taken under an Axio Zoom microscope (Zeiss) with a dedicated program. Filaments were counted using ImageJ software (http://imagej.nih.gov/ij/) as described by Guillory and Bonhomme ([2021]). Twenty-four plants were tested in each treatment.
# rms3-4 pea mutant plants = assay: Pea shoot-branching assay by direct application on the bud, rms3-4; assay type: in vivo, Pisum sativum; settings: rms3-4, 10 days after treatment
# Procedure: (§2) Pea (Pisum sativum) branching mutant plants used in this study were described previously (Rameau et al., [1997]). The SL biosynthesis rms1-10 (M3T-884) and SL response rms3-4 (M2T-30) mutants were obtained from the dwarf cv. Térèse. Plants were grown in a greenhouse under long days as described by Braun et al. ([2012]).
# (§3) The compounds to be tested were applied directly to the axillary bud with a micropipette as 10 μL of a solution containing 0.1% of acetone with 2% of polyethylene glycol 1,450, 50% of ethanol, and 0.4% of DMSO. The control 0 is the treatment with 0.1% of DMSO without compound. A total of 24 plants were sown per treatment in trays (2 repetitions of 12 plants). The treatment was done 8 days after sowing, on the axillary bud at node 3. The branches at nodes 1–2 were removed to encourage the outgrowth of axillary buds at nodes above. Nodes were numbered acropetally from the first scale leaf as node 1 and cotyledonary node as node 0. Bud growth at node 3 was measured 10 days after treatment. Plants with damaged main shoot apex or showing a dead white treated bud were discarded from the analysis. The SL-deficient rms1-10 pea mutant was used for all experiments and WT Térèse as control. SL-perceived rms3-4 pea mutant was used to test that when bioactive, the analog acts via RMS3, and it was also used to check the putative toxicity of probes.
# AtD14 = target: T4, AtD14 (Arabidopsis thaliana, UniProt Q9SQR3); assay: Enzymatic assay with profluorescent probes, AtD14; assay type: biochemical; settings: protein 0.33 μM, probe 10 μM
# T4 construct: GST; made in house
# T4 sequence (Q9SQR3 1-267): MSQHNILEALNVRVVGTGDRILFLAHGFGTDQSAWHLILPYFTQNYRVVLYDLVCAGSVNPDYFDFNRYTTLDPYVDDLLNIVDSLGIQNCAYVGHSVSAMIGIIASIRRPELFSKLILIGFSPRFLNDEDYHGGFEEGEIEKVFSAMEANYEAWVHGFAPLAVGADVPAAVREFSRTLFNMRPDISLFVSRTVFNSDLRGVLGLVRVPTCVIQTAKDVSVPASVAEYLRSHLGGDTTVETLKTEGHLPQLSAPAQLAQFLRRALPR
# Procedure: as §1
# [2] = system: Arabidopsis SL-deficient mutant max3-11; settings: ref de Saint Germain et al., 2016; cited from earlier work
# [3] = system: rms1-10 pea mutant plants; assay: Pea shoot-branching assay by direct application on the bud, rms1-10; assay type: in vivo, Pisum sativum; settings: for Length of bud at node 3 /branch: direct application, rms1-10, 10 days after treatment, mean per replicate; for Bioactivity on shoot branching inhibition (bud development): result in words
# Procedure: as §2, §3
# Ppccd8 mutant plants [4] = settings: WT and Ppccd8; ref Hoffmann et al., 2014; Lopez-Obando et al., 2021; cited from earlier work
# [5] = system: rms1-10 pea mutant plants; settings: direct application, rms1-10, tested previously, ref De saint Germain et al 2016, cited from earlier work
# [6] = Stability of CoumarinAc and DiFMUAc (DMSO, PBS); assay type: physicochemical; settings: in PBS and in DMSO (20°C), in comparison to CoumarinAc
# Procedure: Dimethyl sulfoxide (DMSO) solution of the compound to be tested (1 mM) was incubated at 20°C in the HPLC vials. (±)-1-Indanol [Alfa Aesar, purity >97.5% (GC); 10 mM] was used as the internal standard. The samples were subjected to reverse-phase-ultra-performance liquid chromatography (RP-UPLC)-MS analyses by means of UPLC system equipped with a photo diode array (PDA) and a triple quadrupole detector (TQD) mass spectrometer (Acquity UPLC-TQD, Waters). RP-UPLC (HSS C18 column, 1.8 μm, 2.1 × 50 mm) with 0.1% (v/v) of formic acid in CH3CN and 0.1% (v/v) of formic acid in water (aq. FA, 0.1%, v/v, pH 2.8) were used as eluents [10% CH3CN, followed by linear gradient from 10 to 100% of CH3CN (4 min)] at a flow rate of 0.6 ml min^−1. The detection was done by PDA and with the TQD mass spectrometer operated in electrospray ionization-positive mode at 3.2 kV capillary voltage. To maximize the signal, the cone voltage and collision energy were optimized to 20 V and 12 eV, respectively. The collision gas used was argon at a pressure maintained near 4.5 10^−3 mBar. The relative quantity of the remaining (non-degraded) product was determined by integration comparison with the internal standard.
# ShD14 = system: ShD14; parameters: method as in Xu et al., 2018; settings: ref Xu et al., 2018; cited from earlier work
# [7] = system: Arabidopsis SL-deficient mutant max3-11; assay: Hydroponic assay on Arabidopsis, rosette branches; assay type: in vivo, Arabidopsis thaliana; settings: max3-11, hydroponic, 0.5 and 3 μM
# Procedure: The hydroponic assay was adapted from the study by Cornet et al. ([2021]). Seeds were surface-sterilized for 8 min in a solution of ethanol (95%) and hypochlorite solution (10%; Bayrol, Mundolsheim, France) and were rinsed two times with ethanol (100%). Each seed was sown on top of a cut 0.5 ml Eppendorf tube filled with agar medium containing 0.65% of agar and 10% of nutritive solution of 5 mM NO3. Tubes were soaked in water and stored in the dark at 4°C for 2 days. Twelve plants per pipette tip box (13 × 9 × 7 cm) were grown and supplied with nutrient solution as in the study by Boyer et al. ([2014]) at a concentration of 5 ml/L (750 ml of solution per box). Every week, the nutrient solution was renewed and every 10 days one time, a fresh batch of treatment was added to the solution. The first treatment occurred at day 27 after sowing when plants started to bolt. The number of rosette branches was counted at day 42.
# [8] = system: rms1-10 pea mutant plants; assay: Pea shoot-branching assay by vascular supply, rms1-10; assay type: in vivo, Pisum sativum; settings: rms1-10, 3,000 nM
# Procedure: as §2
# The compounds to be tested were applied by vascular supply (Muñoz et al., [2021]). The control was the treatment with 0.1% of DMSO in water. A total of 12 plants were sown per treatment in trays and were treated with probes under node 3 bud generally 10 days after sowing. Compounds in DMSO solution were diluted with water to 3,000 nM for a treatment with 0.1% (v/v) DMSO. The branches at nodes 1 and 2 were removed to encourage the outgrowth of axillary buds at the nodes above. Nodes were numbered acropetally from the first scale leaf as node 1 and cotyledonary node as node 0. Bud growth at nodes 3 and 4 was measured with digital calipers 8–10 days after treatment. Plants with damaged main shoot apex or with a dead white treated-bud were discarded from the analysis. The SL-deficient rms1-10 pea mutant was used for all experiments.
SMILES,Cleavage of probe by OsD14 (OsD14),Cleavage kinetics by RMS3 (RMS3 protein),Cleavage of probe by RMS3 (RMS3 protein),Cleavage of probe by DAD2 (DAD2),Activity on filament number (Ppccd8 mutant plants [1]),Cleavage of probe by AtD14 (AtD14),"Bioactivity on shoot branching inhibition (bud development) ([3]; rms1-10, direct application)",Length of bud at node 3 /branch ([3]; 10 nM),further results
CC1=C(C)C(Oc2c(F)cc3c(C)cc(=O)oc3c2F)OC1=O (racemic) [(±)-GC242],able to cleave,Two-phase cleavage kinetics; also recorded: blocked at very low concentration; also recorded: two-phase kinetic,able to cleave,able to cleave,confirmed the previous activity,able to cleave,among the most bioactive molecules,–,"Length of bud at node 3 /branch (rms3-4 pea mutant plants; 1,000 nM): 35.80; Length of bud at node 3 /branch (rms3-4 pea mutant plants; 5,000 nM): 33.76; Bioactivity in Arabidopsis [2]: previously found bioactive; Length of bud at node 3 /branch ([3]; 10,000 nM): 1.77 mm; Effect on filament number (Ppccd8 mutant plants [4]): dose-dependent decrease in the filament number"
CC1=CC(Oc2c(F)cc3c(C)cc(=O)oc3c2F)OC1=O (racemic) [(±)-GC240],able to cleave,Two-phase cleavage kinetics; also recorded: blocked at very low concentration,able to cleave,able to cleave,–,able to cleave,inhibition of bud development; also recorded: less efficient than (±)-GR24,–,"Affinity of the rice SL receptor suggested by cleavage profile (OsD14): lower affinity; Length of bud at node 3 /branch ([5]; 1,000 nM): 2.52 mm; Length of bud at node 3 /branch ([5]; 5,000 nM): 2.61 mm"
CC(=O)Oc1c(F)cc2c(C)cc(=O)oc2c1F [DiFMUAc],–,–,–,–,–,–,no effect,23.71 mm,"Stability [6]: poorly stable; Length of bud at node 3 /branch ([3]; 100 nM): 19.75 mm; Length of bud at node 3 /branch ([3]; 1,000 nM): 22.17 mm; Effect on axillary bud ([3]; rms1-10, direct application, 100 nM): significant effect"
"CCOC(=O)c1ccccc1-c1c2ccc(=O)cc-2oc2cc(OC3C=C(C)C(=O)O3)ccc12 (racemic) [(±)-YLG, reference compound]",unable to cleave,–,–,–,less active,–,inhibition of bud development; also recorded: less efficient than (±)-GR24,24.15 mm,"Cleavage by ShD14 (ShD14): not able to cleave; Bioactivity on number of rosette branches [7]: not bioactive; Activity on filament number, one bioassay replication (Ppccd8 mutant plants [1]; Supplementary Figure 3): no significant bioactivity; Bioactivity by vascular supply compared to the coumarin derivatives series [8]: lower bioactivity"
